From ChEMBL document CHEMBL1136696, “Azalide 3,6-ketals: antibacterial activity and structure-activity relationships of aryl and hetero aryl substituted analogues” (Bioorg Med Chem Lett, 2003)
Converted amounts (≈) assume the structure as drawn.

Key:
Assay type in all cases: functional
Escherichia coli = experiment: In vitro antibacterial activity against Escherichia coli 51A0150
Pasteurella multocida = experiment: In vitro antibacterial activity against Pasteurella multocida 59A0067
Staphylococcus aureus = experiment: In vitro antibacterial activity against Staphylococcus aureus 01A0758

Row | Compound | MIC (Escherichia coli) | MIC (Pasteurella multocida) | MIC (Staphylococcus aureus)
1 | CC[C@H]1OC(=O)[C@H](C)[C@H]2OC3(CCN(c4ccc(C(=O)OCc5ccccc5)c(C(F)(F)F)c4)CC3)O[C@](C)(C[C@@H](C)CN(C)[C@H](C)[C@@H](O)[C@]1(C)O)[C@H](O[C@@H]1O[C@H](C)CC(N(C)C)[C@H]1O)[C@H]2C (stereo partly drawn) | 3.13 µg/mL (≈ 3.29 µM) | 0.39 µg/mL (≈ 0.41 µM) | 0.78 µg/mL (≈ 0.821 µM)
2 | CC[C@H]1OC(=O)[C@H](C)[C@H]2OC3(CCN(c4nc5ccccc5[nH]4)CC3)O[C@](C)(C[C@@H](C)CN(C)[C@H](C)[C@@H](O)[C@]1(C)O)[C@H](O[C@@H]1O[C@H](C)CC(N(C)C)[C@H]1O)[C@H]2C (stereo partly drawn) | 1.56 µg/mL (≈ 1.98 µM) | 0.1 µg/mL (≈ 0.127 µM) | 3.13 µg/mL (≈ 3.97 µM)
3 | CC[C@H]1OC(=O)[C@H](C)[C@H]2OC3(CCN(c4ccccc4[N+](=O)[O-])CC3)O[C@](C)(C[C@@H](C)CN(C)[C@H](C)[C@@H](O)[C@]1(C)O)[C@H](O[C@@H]1O[C@H](C)CC(N(C)C)[C@H]1O)[C@H]2C (stereo partly drawn) | 3.13 µg/mL (≈ 3.95 µM) | 0.39 µg/mL (≈ 0.492 µM) | 1.56 µg/mL (≈ 1.97 µM)
4 | CC[C@H]1OC(=O)[C@H](C)[C@H]2OC3(CCN(c4nc(Cl)nc(-c5ccccc5)n4)CC3)O[C@](C)(C[C@@H](C)CN(C)[C@H](C)[C@@H](O)[C@]1(C)O)[C@H](O[C@@H]1O[C@H](C)CC(N(C)C)[C@H]1O)[C@H]2C (stereo partly drawn) | > 50 µg/mL | > 50 µg/mL | 1.56 µg/mL (≈ 1.81 µM)
5 | CC[C@H]1OC(=O)[C@H](C)[C@H]2OC3(CCN(c4ccc(C(N)=O)cn4)CC3)O[C@](C)(C[C@@H](C)CN[C@H](C)[C@@H](O)[C@]1(C)O)[C@H](O[C@@H]1O[C@H](C)CC(N(C)C)[C@H]1O)[C@H]2C (stereo partly drawn) | 6.25 µg/mL (≈ 8.03 µM) | 0.2 µg/mL (≈ 0.257 µM) | 1.56 µg/mL (≈ 2.01 µM)
6 | CC[C@H]1OC(=O)[C@H](C)[C@H]2OC3(CCN(c4ccc(C#N)cc4)CC3)O[C@](C)(C[C@@H](C)CN(C)[C@H](C)[C@@H](O)[C@]1(C)O)[C@H](O[C@@H]1O[C@H](C)CC(N(C)C)[C@H]1O)[C@H]2C (stereo partly drawn) | 25 µg/mL (≈ 32.3 µM) | 0.39 µg/mL (≈ 0.505 µM) | 3.13 µg/mL (≈ 4.05 µM)
7 | CC[C@H]1OC(=O)[C@H](C)C2OC3(CCNCC3)O[C@](C)(C[C@@H](C)CN(C)[C@H](C)[C@@H](O)[C@]1(C)O)[C@H](O[C@@H]1O[C@H](C)C[C@H](N(C)C)[C@H]1O)[C@H]2C | 0.39 µg/mL (≈ 0.58 µM) | < 0.05 µg/mL | 6.25 µg/mL (≈ 9.3 µM)
8 | CC[C@H]1OC(=O)[C@H](C)[C@H]2OC3(CCN(c4ncc(C(=O)OCc5ccccc5)c(C(F)(F)F)n4)CC3)O[C@](C)(C[C@@H](C)CN(C)[C@H](C)[C@@H](O)[C@]1(C)O)[C@H](O[C@@H]1O[C@H](C)CC(N(C)C)[C@H]1O)[C@H]2C (stereo partly drawn) | > 50 µg/mL | > 50 µg/mL | 1.17 µg/mL (≈ 1.23 µM)
9 | CC[C@H]1OC(=O)[C@H](C)[C@H]2OC3(CCN(c4ncccn4)CC3)O[C@](C)(C[C@@H](C)CN(C)[C@H](C)[C@@H](O)[C@]1(C)O)[C@H](O[C@@H]1O[C@H](C)CC(N(C)C)[C@H]1O)[C@H]2C (stereo partly drawn) | 1.56 µg/mL (≈ 2.08 µM) | 0.1 µg/mL (≈ 0.133 µM) | 1.56 µg/mL (≈ 2.08 µM)
10 | CC[C@H]1OC(=O)[C@H](C)[C@H]2OC3(CCN(c4ccc([N+](=O)[O-])cc4)CC3)O[C@](C)(C[C@@H](C)CN(C)[C@H](C)[C@@H](O)[C@]1(C)O)[C@H](O[C@@H]1O[C@H](C)CC(N(C)C)[C@H]1O)[C@H]2C (stereo partly drawn) | 6.25 µg/mL (≈ 7.88 µM) | 0.39 µg/mL (≈ 0.492 µM) | 1.56 µg/mL (≈ 1.97 µM)
11 | CC[C@H]1OC(=O)[C@H](C)[C@H]2OC3(CCN(c4ccc(C(=O)N(C)c5ccncc5)cc4F)CC3)O[C@](C)(C[C@@H](C)CN(C)[C@H](C)[C@@H](O)[C@]1(C)O)[C@H](O[C@@H]1O[C@H](C)CC(N(C)C)[C@H]1O)[C@H]2C (stereo partly drawn) | 1.56 µg/mL (≈ 1.73 µM) | 0.2 µg/mL (≈ 0.222 µM) | 3.13 µg/mL (≈ 3.48 µM)
12 | CC[C@H]1OC(=O)[C@H](C)[C@H]2OC3(CCN(c4ccc(C#N)cn4)CC3)O[C@](C)(C[C@@H](C)CN[C@H](C)[C@@H](O)[C@]1(C)O)[C@H](O[C@@H]1O[C@H](C)CC(N(C)C)[C@H]1O)[C@H]2C (stereo partly drawn) | 6.25 µg/mL (≈ 8.22 µM) | 0.2 µg/mL (≈ 0.263 µM) | 1.56 µg/mL (≈ 2.05 µM)
13 | CC[C@H]1OC(=O)[C@H](C)[C@H]2OC3(CCN(c4ccc(C(=O)OCc5ccccc5)cc4)CC3)O[C@](C)(C[C@@H](C)CN(C)[C@H](C)[C@@H](O)[C@]1(C)O)[C@H](O[C@@H]1O[C@H](C)CC(N(C)C)[C@H]1O)[C@H]2C (stereo partly drawn) | 3.13 µg/mL (≈ 3.55 µM) | 0.39 µg/mL (≈ 0.442 µM) | 3.13 µg/mL (≈ 3.55 µM)
14 | CC[C@H]1OC(=O)[C@H](C)[C@H]2OC3(CCN(c4ccc(C(=O)OCc5ccccc5)cc4F)CC3)O[C@](C)(C[C@@H](C)CN[C@H](C)[C@@H](O)[C@]1(C)O)[C@H](O[C@@H]1O[C@H](C)CC(N(C)C)[C@H]1O)[C@H]2C (stereo partly drawn) | > 50 µg/mL | 3.13 µg/mL (≈ 3.53 µM) | 0.39 µg/mL (≈ 0.44 µM)
15 | CC[C@H]1OC(=O)[C@H](C)[C@H]2OC3(CCN(c4nccc(C(F)(F)F)n4)CC3)O[C@](C)(C[C@@H](C)CN[C@H](C)[C@@H](O)[C@]1(C)O)[C@H](O[C@@H]1O[C@H](C)CC(N(C)C)[C@H]1O)[C@H]2C (stereo partly drawn) | 3.13 µg/mL (≈ 3.89 µM) | 0.78 µg/mL (≈ 0.97 µM) | 1.56 µg/mL (≈ 1.94 µM)
16 | CC[C@H]1OC(=O)[C@H](C)[C@H]2OC3(CCN(c4ccc(NC(=O)c5ccccc5)cc4)CC3)O[C@](C)(C[C@@H](C)CN(C)[C@H](C)[C@@H](O)[C@]1(C)O)[C@H](O[C@@H]1O[C@H](C)CC(N(C)C)[C@H]1O)[C@H]2C (stereo partly drawn) | 50 µg/mL (≈ 57.7 µM) | 1.56 µg/mL (≈ 1.8 µM) | 12.5 µg/mL (≈ 14.4 µM)
